{
  "source": "paper PMC9516332",
  "about": "(Frontiers in Oncology, 2022)",
  "system": "134 cancer cell lines",
  "assay": "Cell viability assay (ATPlite, 72 hours), IC50 on cancer cell line panel",
  "note": "Read-outs that look alike come from different tables or passages of the source.",
  "data": [
    {"smiles": "CCc1cc2c(cc1N1CCC(N3CCOCC3)CC1)C(C)(C)c1[nH]c3cc(C#N)ccc3c1C2=O", "note": "[alectinib]", "values": [
      {"measurement": "IC50", "setting": "Homo sapiens, LoVo, read-out: IC50 in cell proliferation assay", "result": "> 10", "unit": "µM"},
      {"measurement": "IC50", "setting": "Homo sapiens, MCF7, read-out: IC50 in cell proliferation assay", "result": "> 10", "unit": "µM"},
      {"measurement": "IC50", "setting": "Homo sapiens, MDA-MB-231, read-out: IC50 in cell proliferation assay", "result": "> 10", "unit": "µM"},
      {"measurement": "IC50", "setting": "Homo sapiens, MDA-MB-453, read-out: IC50 in cell proliferation assay", "result": "> 10", "unit": "µM"},
      {"measurement": "IC50", "setting": "Homo sapiens, MDA-MB-468, read-out: IC50 in cell proliferation assay", "result": "> 10", "unit": "µM"},
      {"measurement": "IC50", "setting": "Homo sapiens, MG-63, read-out: IC50 in cell proliferation assay", "result": "> 10", "unit": "µM"},
      {"measurement": "IC50", "setting": "Homo sapiens, MIA PaCa-2, read-out: IC50 in cell proliferation assay", "result": "> 10", "unit": "µM"},
      {"measurement": "IC50", "setting": "Homo sapiens, MKN-45, read-out: IC50 in cell proliferation assay", "result": "> 10", "unit": "µM"},
      {"measurement": "IC50", "setting": "Homo sapiens, MOLM-13, read-out: IC50 in cell proliferation assay", "result": 0.99, "unit": "µM"},
      {"measurement": "IC50", "setting": "Homo sapiens, MOLT-4, read-out: IC50 in cell proliferation assay", "result": "> 10", "unit": "µM"},
      {"measurement": "IC50", "setting": "Homo sapiens, MV4-11, read-out: IC50 in cell proliferation assay", "result": 1.07, "unit": "µM"},
      {"measurement": "IC50", "setting": "Homo sapiens, MeWo, read-out: IC50 in cell proliferation assay", "result": "> 10", "unit": "µM"},
      {"measurement": "IC50", "setting": "Homo sapiens, NCCIT, read-out: IC50 in cell proliferation assay", "result": "> 3.16", "unit": "µM"},
      {"measurement": "IC50", "setting": "Homo sapiens, NCI-H82, read-out: IC50 in cell proliferation assay", "result": "> 10", "unit": "µM"},
      {"measurement": "IC50", "setting": "Homo sapiens, NCI-H460, read-out: IC50 in cell proliferation assay", "result": "> 10", "unit": "µM"},
      {"measurement": "IC50", "setting": "Homo sapiens, NCI-H661, read-out: IC50 in cell proliferation assay", "result": "> 10", "unit": "µM"},
      {"measurement": "IC50", "setting": "Homo sapiens, NCI-H716, read-out: IC50 in cell proliferation assay", "result": 2.51, "unit": "µM"},
      {"measurement": "IC50", "setting": "Homo sapiens, NCI-H1650, read-out: IC50 in cell proliferation assay", "result": 1.66, "unit": "µM"},
      {"measurement": "IC50", "setting": "Homo sapiens, NCI-H1975, read-out: IC50 in cell proliferation assay", "result": 0.743, "unit": "µM"},
      {"measurement": "IC50", "setting": "Homo sapiens, NCI-H2228, read-out: IC50 in cell proliferation assay", "result": 0.039, "unit": "µM"},
      {"measurement": "IC50", "setting": "Homo sapiens, OVCAR-3, read-out: IC50 in cell proliferation assay", "result": "> 10", "unit": "µM"},
      {"measurement": "IC50", "setting": "Homo sapiens, PFSK-1, read-out: IC50 in cell proliferation assay", "result": 3.48, "unit": "µM"},
      {"measurement": "IC50", "setting": "Homo sapiens, RL95-2, read-out: IC50 in cell proliferation assay", "result": 1.33, "unit": "µM"},
      {"measurement": "IC50", "setting": "Homo sapiens, RPMI-7951, read-out: IC50 in cell proliferation assay", "result": "> 10", "unit": "µM"},
      {"measurement": "IC50", "setting": "Homo sapiens, RS4-11, read-out: IC50 in cell proliferation assay", "result": "> 10", "unit": "µM"},
      {"measurement": "IC50", "setting": "Homo sapiens, Rec1, read-out: IC50 in cell proliferation assay", "result": 1.24, "unit": "µM"},
      {"measurement": "IC50", "setting": "Homo sapiens, SHP77, read-out: IC50 in cell proliferation assay", "result": "> 10", "unit": "µM"},
      {"measurement": "IC50", "setting": "Homo sapiens, SK-BR-3, read-out: IC50 in cell proliferation assay", "result": "> 10", "unit": "µM"},
      {"measurement": "IC50", "setting": "Homo sapiens, SK-N-AS, read-out: IC50 in cell proliferation assay", "result": 7.73, "unit": "µM"},
      {"measurement": "IC50", "setting": "Homo sapiens, SK-N-FI, read-out: IC50 in cell proliferation assay", "result": 7.44, "unit": "µM"},
      {"measurement": "IC50", "setting": "Homo sapiens, SK-N-MC, read-out: IC50 in cell proliferation assay", "result": "> 10", "unit": "µM"},
      {"measurement": "IC50", "setting": "Homo sapiens, SK-N-SH, read-out: IC50 in cell proliferation assay", "result": 2.43, "unit": "µM"},
      {"measurement": "IC50", "setting": "Homo sapiens, SNU-5, read-out: IC50 in cell proliferation assay", "result": "> 10", "unit": "µM"},
      {"measurement": "IC50", "setting": "Homo sapiens, SNU-16, read-out: IC50 in cell proliferation assay", "result": "> 10", "unit": "µM"},
      {"measurement": "IC50", "setting": "Homo sapiens, SNU-C2B, read-out: IC50 in cell proliferation assay", "result": "> 10", "unit": "µM"},
      {"measurement": "IC50", "setting": "Homo sapiens, SU-DHL-1, read-out: IC50 in cell proliferation assay", "result": 0.432, "unit": "µM"},
      {"measurement": "IC50", "setting": "Homo sapiens, SU-DHL-6, read-out: IC50 in cell proliferation assay", "result": "> 10", "unit": "µM"},
      {"measurement": "IC50", "setting": "Homo sapiens, SUP-T1, read-out: IC50 in cell proliferation assay", "result": "> 10", "unit": "µM"},
      {"measurement": "IC50", "setting": "Homo sapiens, SW48, read-out: IC50 in cell proliferation assay", "result": "> 10", "unit": "µM"},
      {"measurement": "IC50", "setting": "Homo sapiens, SW480, read-out: IC50 in cell proliferation assay", "result": "> 10", "unit": "µM"},
      {"measurement": "IC50", "setting": "Homo sapiens, SW626, read-out: IC50 in cell proliferation assay", "result": "> 10", "unit": "µM"},
      {"measurement": "IC50", "setting": "Homo sapiens, SW780, read-out: IC50 in cell proliferation assay", "result": 1.67, "unit": "µM"},
      {"measurement": "IC50", "setting": "Homo sapiens, SW837, read-out: IC50 in cell proliferation assay", "result": "> 10", "unit": "µM"},
      {"measurement": "IC50", "setting": "Homo sapiens, SW872, read-out: IC50 in cell proliferation assay", "result": "> 10", "unit": "µM"},
      {"measurement": "IC50", "setting": "Homo sapiens, SW900, read-out: IC50 in cell proliferation assay", "result": "> 10", "unit": "µM"},
      {"measurement": "IC50", "setting": "Homo sapiens, SW948, read-out: IC50 in cell proliferation assay", "result": "> 10", "unit": "µM"},
      {"measurement": "IC50", "setting": "Homo sapiens, SW982, read-out: IC50 in cell proliferation assay", "result": "> 10", "unit": "µM"},
      {"measurement": "IC50", "setting": "Homo sapiens, SW-620, read-out: IC50 in cell proliferation assay", "result": "> 10", "unit": "µM"},
      {"measurement": "IC50", "setting": "Homo sapiens, T98G, read-out: IC50 in cell proliferation assay", "result": "> 10", "unit": "µM"},
      {"measurement": "IC50", "setting": "Homo sapiens, TCC-SUP, read-out: IC50 in cell proliferation assay", "result": 3.7, "unit": "µM"},
      {"measurement": "IC50", "setting": "Homo sapiens, THP-1, read-out: IC50 in cell proliferation assay", "result": "> 10", "unit": "µM"},
      {"measurement": "IC50", "setting": "Homo sapiens, U2OS, read-out: IC50 in cell proliferation assay", "result": 3.79, "unit": "µM"},
      {"measurement": "IC50", "setting": "Homo sapiens, U-87 MG, read-out: IC50 in cell proliferation assay", "result": 3.1, "unit": "µM"},
      {"measurement": "IC50", "setting": "Homo sapiens, U-118-MG, read-out: IC50 in cell proliferation assay", "result": 3.33, "unit": "µM"},
      {"measurement": "IC50", "setting": "Homo sapiens, UMUC3, read-out: IC50 in cell proliferation assay", "result": 3.3, "unit": "µM"},
      {"measurement": "IC50", "setting": "Hs766T, read-out: IC50 in cell proliferation assay", "result": "> 10", "unit": "µM"},
      {"measurement": "IC50", "setting": "L-82, read-out: IC50 in cell proliferation assay", "result": 0.037, "unit": "µM"},
      {"measurement": "IC50", "setting": "Rh30, read-out: IC50 in cell proliferation assay", "result": "> 10", "unit": "µM"}
    ]}
  ]
}
